Laboratory results as given in article PMC4051504, “Structural and functional analysis of the human spliceosomal DEAD-box helicase Prp28” (Acta Crystallographica Section D: Biological Crystallography, 2014).

Biological target: T1, hPrp28ΔN (Homo sapiens, UniProt Q9BUQ8)
T1 construct: gene DDX23; helicase domain plus short N-terminal extension, residues 338-820; GST tag cleaved with PreScission protease; E. coli BL21 Star (DE3)
T1 sequence (Q9BUQ8 338-820): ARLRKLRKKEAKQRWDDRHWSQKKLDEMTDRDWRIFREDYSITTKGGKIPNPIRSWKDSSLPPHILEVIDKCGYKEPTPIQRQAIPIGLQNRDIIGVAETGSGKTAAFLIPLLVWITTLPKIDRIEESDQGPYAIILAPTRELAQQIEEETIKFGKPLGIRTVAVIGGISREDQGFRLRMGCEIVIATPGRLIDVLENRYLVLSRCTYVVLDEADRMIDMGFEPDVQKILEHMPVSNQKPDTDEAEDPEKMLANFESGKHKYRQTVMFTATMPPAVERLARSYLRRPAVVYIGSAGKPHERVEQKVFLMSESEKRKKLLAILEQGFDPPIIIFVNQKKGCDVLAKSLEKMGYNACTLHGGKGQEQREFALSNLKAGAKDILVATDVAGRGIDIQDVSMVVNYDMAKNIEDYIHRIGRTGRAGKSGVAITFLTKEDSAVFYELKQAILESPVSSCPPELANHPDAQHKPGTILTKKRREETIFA
Test: fluorescence titration, Trp emission at […] nm (excitation […] nm)
Assay type: binding

With CNc1ccccc1C(=O)O[C@H]1[C@@H](O)[C@H](n2cnc3c(N)ncnc32)O[C@@H]1CO[P@@](=O)(O)O[P@](=O)(O)OP(=O)(O)O [mant-ATP] the Kd was > 400 µM.
